Test results from US20250145594A1, “MODULATORS OF THE INTEGRATED STRESS PATHWAY” (Calico Life Sciences LLC, priority 2020, published 2025).
pEC50: −log10 of the molar value.

System: ATF4 luciferase reporter in HEK293T cells
Experiment: ATF4-Luc assay (in vitro model of VWMD)
Assay type: cell-based, human
Conditions: Homo sapiens, HEK-293T, 7 h, HEK293T cells carrying the ATF4 luciferase reporter, 1 μg/mL tunicamycin, One Glo luminescence
Procedure, shortened: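 Tunicamycin (1 μg/mL) stress with co-added compound for 7 hours in HEK293T cells stably carrying an ATF4 5′-UTR–luciferase reporter. EC50 values come from the luminescent signal (One Glo).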

SMILES: O=C(N[C@H]1CC[C@H](n2cc(-c3ccc(C(F)(F)F)cn3)cn2)CC1)[C@H]1C[C@@H](O)c2cc(Cl)ccc2O1 [Compound 577, (2R,4R)-6-chloro-4-hydroxy-N-[(1r,4R)-4-{4-[5-(trifluoromethyl)pyridin-2-yl]-1H-pyrazol-1-yl}cyclohexyl]-3,4-dihydro-2H-1-benzopyran-2-carboxamide]
- pEC50: > 8.00

SMILES: COc1ccc2nn([C@H]3CC[C@H](NC(=O)[C@H]4C[C@@H](O)c5cc(Cl)ccc5O4)CC3)cc2n1 [Compound 508, (2R,4R)-6-chloro-4-hydroxy-N-[(1r,4R)-4-(5-methoxy-2H-pyrazolo[4,3-b]pyridin-2-yl)cyclohexyl]-3,4-dihydro-2H-1-benzopyran-2-carboxamide]
- pEC50: 7.30 to 8.00

SMILES: C[C@@H](COC(F)(F)F)Oc1cnn(C23CC(NC(=O)[C@H]4C[C@@H](O)c5cc(Cl)ccc5O4)(C2)C3)c1 [Compound 439, (2R,4R)-6-chloro-4-hydroxy-N-[3-(4-{[(2S)-1-(trifluoromethoxy)propan-2-yl]oxy}-1H-pyrazol-1-yl)bicyclo[1.1.1]pentan-1-yl]-3,4-dihydro-2H-1-benzopyran-2-carboxamide]
- pEC50: > 8.00

SMILES: O=C(NC12CC(n3cnc(-c4ccc(Cl)cc4F)c3)(C1)C2)[C@H]1C[C@@H](O)c2cc(Cl)ccc2O1 [Compound 343, (2R,4R)-6-chloro-N-{3-[4-(4-chloro-2-fluorophenyl)-1H-imidazol-1-yl]bicyclo[1.1.1]pentan-1-yl}-4-hydroxy-3,4-dihydro-2H-1-benzopyran-2-carboxamide]
- pEC50: > 8.00

SMILES: O=C(NC12CC(n3cc(C(=O)N4CC[C@H](OC(F)(F)F)C4)cn3)(C1)C2)[C@H]1C[C@@H](O)c2cc(C(F)(F)F)ccc2O1 [Compound 326, (2R,4R)-4-hydroxy-N-(3-{4-[(3S)-3-(trifluoromethoxy)pyrrolidine-1-carbonyl]-1H-pyrazol-1-yl}bicyclo[1.1.1]pentan-1-yl)-6-(trifluoromethyl)-3,4-dihydro-2H-1-benzopyran-2-carboxamide]
- pEC50: > 8.00

SMILES: O=C(N[C@H]1CC[C@H](n2cc(N3CC[C@@H](OC(F)(F)F)C3)cn2)CC1)[C@H]1C[C@@H](O)c2cc(Cl)ccc2O1 [Compound 581, (2R,4R)-6-chloro-4-hydroxy-N-[(1R,4R)-4-{4-[(3R)-3-(trifluoromethoxy)pyrrolidin-1-yl]-1H-pyrazol-1-yl}cyclohexyl]-3,4-dihydro-2H-1-benzopyran-2-carboxamide]
- pEC50: 7.30 to 8.00

SMILES: O=C(NC12CC(n3cc4c(n3)CN(CCOC(F)(F)F)C4)(C1)C2)[C@H]1C[C@@H](O)c2cc(Cl)c(F)cc2O1 [Compound 512, (2R,4R)-6-chloro-7-fluoro-4-hydroxy-N-(3-{5-[2-(trifluoromethoxy)ethyl]-5,6-dihydropyrrolo[3,4-c]pyrazol-2(4H)-yl}bicyclo[1.1.1]pentan-1-yl)-3,4-dihydro-2H-1-benzopyran-2-carboxamide]
- pEC50: 7.30 to 8.00

SMILES: O=C(NC12CC(n3cc(OCCCC(F)(F)F)cn3)(C1)C2)[C@H]1C[C@@H](O)c2cc(Cl)ccc2O1 [Compound 517, (2R,4R)-6-chloro-4-hydroxy-N-{3-[4-(4,4,4-trifluorobutoxy)-1H-pyrazol-1-yl]bicyclo[1.1.1]pentan-1-yl}-3,4-dihydro-2H-1-benzopyran-2-carboxamide]
- pEC50: > 8.00

SMILES: O=C(COc1ccc(Cl)c(F)c1)NC12CC(n3cc(CCCOC(F)(F)F)cn3)(C1)C2 [Compound 613, 2-(4-chloro-3-fluorophenoxy)-N-(3-{4-[3-(trifluoromethoxy)propyl]-1H-pyrazol-1-yl}bicyclo[1.1.1]pentan-1-yl)acetamide]
- pEC50: 7.30 to 8.00

SMILES: O=C(NC12CC(c3ccc(-n4cnc(C(F)(F)F)c4)nc3)(C1)C2)[C@H]1C[C@@H](O)c2cc(Cl)c(F)cc2O1 [Compound 480, (2R,4R)-6-chloro-7-fluoro-4-hydroxy-N-(3-{6-[4-(trifluoromethyl)-1H-imidazol-1-yl]pyridin-3-yl}bicyclo[1.1.1]pentan-1-yl)-3,4-dihydro-2H-1-benzopyran-2-carboxamide]
- pEC50: > 8.00

SMILES: O=C(NC12CC(n3cc(-c4ccc(OC(F)F)cn4)cn3)(C1)C2)[C@H]1C[C@@H](O)c2cc(Cl)ccc2O1 [Compound 575, (2R,4R)-6-chloro-N-(3-{4-[5-(difluoromethoxy)pyridin-2-yl]-1H-pyrazol-1-yl}bicyclo[1.1.1]pentan-1-yl)-4-hydroxy-3,4-dihydro-2H-1-benzopyran-2-carboxamide]
- pEC50: > 8.00

SMILES: O=C(N[C@H]1CC[C@H](C(=O)N2CC(c3ccc(C(F)(F)F)cc3)C2)CC1)[C@H]1C[C@@H](O)c2cc(Cl)ccc2O1 [Compound 323, (2R,4R)-6-chloro-4-hydroxy-N-[trans-4-{3-[4-(trifluoromethyl)phenyl]azetidine-1-carbonyl}cyclohexyl]-3,4-dihydro-2H-1-benzopyran-2-carboxamide]
- pEC50: > 8.00

SMILES: O=C(NC12CC(n3cc(-c4cnn(C(F)(F)F)c4)cn3)(C1)C2)[C@H]1C[C@@H](O)c2cc(Cl)c(F)cc2O1 [Compound 479, (2R,4R)-6-chloro-7-fluoro-4-hydroxy-N-{3-[1′-(trifluoromethyl)-1H,1′H-[4,4′-bipyrazol]-1-yl]bicyclo[1.1.1]pentan-1-yl}-3,4-dihydro-2H-1-benzopyran-2-carboxamide]
- pEC50: > 8.00

SMILES: O=C(NC12CC(n3cc(-c4ccc(C(F)(F)F)cn4)cn3)(C1)C2)[C@@H]1C[C@@H](O)c2cc(Cl)c(F)cc2O1 [Compound 477, (2S,4R)-6-chloro-7-fluoro-4-hydroxy-N-(3-{4-[5-(trifluoromethyl)pyridin-2-yl]-1H-pyrazol-1-yl}bicyclo[1.1.1]pentan-1-yl)-3,4-dihydro-2H-1-benzopyran-2-carboxamide]
- pEC50: > 8.00

SMILES: O=C(CO[C@H]1C[C@@H](OC(F)(F)F)C1)N[C@@H]1C[C@@H]2C[C@H]1C[C@H]2NC(=O)[C@@H]1C[C@@H](O)c2cc(Cl)ccc2O1 [Compound 393, (2S,4R)-6-chloro-4-hydroxy-N-[(1S,2R,4S,5R)-5-(2-{[cis-3-(trifluoromethoxy)cyclobutyl]oxy}acetamido)bicyclo[2.2.1]heptan-2-yl]-3,4-dihydro-2H-1-benzopyran-2-carboxamide]
- pEC50: 6.60 to 7.30

SMILES: O=C(NC12CC(c3ccnc(OCCOC(F)(F)F)n3)(C1)C2)[C@H]1C[C@@H](O)c2cc(C(F)(F)F)c(F)cc2O1 [Compound 593, (2R,4R)-7-fluoro-4-hydroxy-N-(3-{2-[2-(trifluoromethoxy)ethoxy]pyrimidin-4-yl}bicyclo[1.1.1]pentan-1-yl)-6-(trifluoromethyl)-3,4-dihydro-2H-1-benzopyran-2-carboxamide]
- pEC50: 7.30 to 8.00

SMILES: O=C(NC12CC(n3cc(-c4ccc(OC(F)(F)F)nc4)cn3)(C1)C2)[C@H]1C[C@@H](O)c2cc(Cl)ccc2O1 [Compound 350, (2R,4R)-6-chloro-4-hydroxy-N-(3-{4-[6-(trifluoromethoxy)pyridin-3-yl]-1H-pyrazol-1-yl}bicyclo[1.1.1]pentan-1-yl)-3,4-dihydro-2H-1-benzopyran-2-carboxamide]
- pEC50: > 8.00

SMILES: O=C(NC12CC(n3cc(N4CCC(OC(F)(F)F)C4)cn3)(C1)C2)[C@H]1C[C@@H](O)c2cc(Cl)ccc2O1 (stereo partly drawn) [Compound 325, (2R,4R)-6-chloro-4-hydroxy-N-(3-{4-[3-(trifluoromethoxy)pyrrolidin-1-yl]-1H-pyrazol-1-yl}bicyclo[1.1.1]pentan-1-yl)-3,4-dihydro-2H-1-benzopyran-2-carboxamide]
- pEC50: > 8.00
